Results as given in paper PMC4859410 (Pharmacogenetics and genomics, 2010).
Read-outs that look alike come from different tables or passages of the source.

Legend:
OATP1A2 = target: T1, OATP1A2 (Homo sapiens, UniProt P46721); assay: Drug uptake in X. laevis oocytes injected with SLCO1A2; format: in vitro ADME; conditions: 1 µM (darunavir 3 µM), 18°C, 1hr, mean ± SD; for Drug uptake, OATP1A2: OATP1A2 cRNA injected oocytes; for Drug uptake, Water: water injected control oocytes (Table 1)
T1 sequence (P46721 1-670): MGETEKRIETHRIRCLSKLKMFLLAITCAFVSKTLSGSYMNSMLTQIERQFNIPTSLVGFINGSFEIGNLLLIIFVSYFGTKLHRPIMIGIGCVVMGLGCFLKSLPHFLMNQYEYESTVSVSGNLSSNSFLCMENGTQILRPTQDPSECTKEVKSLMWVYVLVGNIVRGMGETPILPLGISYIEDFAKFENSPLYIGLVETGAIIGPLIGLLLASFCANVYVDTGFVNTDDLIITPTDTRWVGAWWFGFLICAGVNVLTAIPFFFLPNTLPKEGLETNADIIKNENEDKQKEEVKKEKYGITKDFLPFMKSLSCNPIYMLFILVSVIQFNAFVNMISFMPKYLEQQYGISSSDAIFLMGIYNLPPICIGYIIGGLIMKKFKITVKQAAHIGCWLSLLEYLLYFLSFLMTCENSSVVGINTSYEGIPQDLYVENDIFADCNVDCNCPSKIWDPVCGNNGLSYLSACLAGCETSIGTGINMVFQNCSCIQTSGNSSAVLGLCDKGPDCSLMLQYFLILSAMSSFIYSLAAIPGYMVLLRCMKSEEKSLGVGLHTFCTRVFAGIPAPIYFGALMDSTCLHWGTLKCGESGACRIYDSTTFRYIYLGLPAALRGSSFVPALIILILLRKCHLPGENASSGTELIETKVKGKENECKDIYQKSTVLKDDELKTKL

OATP1B3 = target: T2, OATP1B3 (Homo sapiens, UniProt Q9NPD5); assay: Drug uptake in X. laevis oocytes injected with SLCO1B3; format: in vitro ADME; conditions: without human serum albumin, 1 µM (darunavir 3 µM, performed once), 18°C, 1hr, mean ± SD; for Drug uptake, OATP1B3: OATP1B3 cRNA injected oocytes; for Drug uptake, Water: water injected control oocytes (Table 3)
T2 sequence (Q9NPD5 1-702): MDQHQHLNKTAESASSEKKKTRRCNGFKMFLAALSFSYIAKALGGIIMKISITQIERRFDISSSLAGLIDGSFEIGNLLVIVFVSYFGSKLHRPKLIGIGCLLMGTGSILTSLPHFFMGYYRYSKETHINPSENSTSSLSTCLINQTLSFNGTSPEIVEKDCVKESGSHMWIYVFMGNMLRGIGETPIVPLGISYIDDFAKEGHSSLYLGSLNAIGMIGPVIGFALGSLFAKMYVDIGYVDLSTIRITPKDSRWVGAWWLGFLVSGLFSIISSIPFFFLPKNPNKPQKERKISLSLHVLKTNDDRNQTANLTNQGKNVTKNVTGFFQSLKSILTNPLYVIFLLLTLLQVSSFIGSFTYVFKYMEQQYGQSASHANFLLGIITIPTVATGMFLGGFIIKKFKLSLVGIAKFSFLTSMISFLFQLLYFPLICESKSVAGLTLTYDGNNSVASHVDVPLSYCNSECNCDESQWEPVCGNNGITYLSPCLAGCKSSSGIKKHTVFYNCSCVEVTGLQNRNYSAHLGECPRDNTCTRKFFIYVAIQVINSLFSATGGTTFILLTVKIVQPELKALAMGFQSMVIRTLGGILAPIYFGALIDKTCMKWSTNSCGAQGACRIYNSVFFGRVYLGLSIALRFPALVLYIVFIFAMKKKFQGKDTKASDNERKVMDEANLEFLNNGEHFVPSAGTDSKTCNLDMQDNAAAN

[1] = format: in vivo, human
OATP1B1 [2] = target: T3, OATP1B1 (Homo sapiens, UniProt Q9Y6L6); assay: Drug uptake in X. laevis oocytes injected with SLCO1B1; format: in vitro ADME; conditions: 1 µM (darunavir 3 µM), 18°C, 1hr, mean ± SD; for Drug uptake, OATP1B1: OATP1B1 cRNA injected oocytes; for Drug uptake, Water: water injected control oocytes (Table 2)
T3 sequence (Q9Y6L6 1-691): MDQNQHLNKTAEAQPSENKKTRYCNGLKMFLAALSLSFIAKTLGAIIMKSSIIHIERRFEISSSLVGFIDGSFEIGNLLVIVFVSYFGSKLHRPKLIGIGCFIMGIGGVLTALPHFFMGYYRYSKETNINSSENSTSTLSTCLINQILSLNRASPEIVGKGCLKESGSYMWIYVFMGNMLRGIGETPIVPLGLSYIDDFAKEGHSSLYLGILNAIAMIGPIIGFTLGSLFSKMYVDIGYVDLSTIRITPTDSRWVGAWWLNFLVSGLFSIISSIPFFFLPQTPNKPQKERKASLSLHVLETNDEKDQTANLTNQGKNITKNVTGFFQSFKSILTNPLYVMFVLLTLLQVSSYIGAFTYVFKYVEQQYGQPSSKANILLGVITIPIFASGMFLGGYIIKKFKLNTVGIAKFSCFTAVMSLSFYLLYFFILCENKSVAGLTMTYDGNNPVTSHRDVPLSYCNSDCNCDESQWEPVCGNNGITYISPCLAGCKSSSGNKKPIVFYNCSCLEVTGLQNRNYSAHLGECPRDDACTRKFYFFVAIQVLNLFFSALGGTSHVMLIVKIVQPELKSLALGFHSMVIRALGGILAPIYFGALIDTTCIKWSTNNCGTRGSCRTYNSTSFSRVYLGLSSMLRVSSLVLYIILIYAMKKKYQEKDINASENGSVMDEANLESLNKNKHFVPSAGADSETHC

OATP1B1 [3] = target: T3, OATP1B1; conditions: HEK 293 cells stably transfected with SLCO1B1; cited from earlier work
[4] = independent variable Age (Years)
[5] = independent variable Coadministered protease inhibitor
[6] = independent variable Male Gender
[7] = independent variable SLCO1A2 38T>C
[8] = independent variable SLCO1A2 516A>C
[9] = independent variable SLCO1B1 388A>G
[10] = independent variable SLCO1B1 521T>C
[11] = independent variable SLCO1B3 334T>G
[12] = independent variable Weight (per 10kg)
[13] = patients on lopinavir/ritonavir 400mg/100mg b.d., samples included in the analysis

## Cc1cccc(C)c1OCC(=O)N[C@@H](Cc1ccccc1)[C@@H](O)C[C@H](Cc1ccccc1)NC(=O)[C@H](C(C)C)N1CCCNC1=O [Lopinavir, lopinavir]
OATP1A2; with 2% human serum albumin
  Drug uptake, OATP1A2: 1.65 ± 0.59 pmol/oocyte
  Drug uptake, Water: 0.82 ± 0.24 pmol/oocyte
OATP1A2; without human serum albumin
  Drug uptake, OATP1A2: 4.07 ± 0.67 pmol/oocyte
  Drug uptake, Water: 2.53 ± 0.36 pmol/oocyte
OATP1B3
  Drug uptake, OATP1B3: 2.30 ± 0.66 pmol/oocyte
  Drug uptake, Water: 1.69 ± 0.78 pmol/oocyte
[1]; in words
  lopinavir Cmin with a SNP located in intron 2 of the SLCO1B1 gene: significantly lower
  median plasma lopinavir Cmin, patients homozygous for the C allele at position 521 of SLCO1B1 compared to T homozygotes or heterozygotes: significantly higher
[1]; [4]
  Univariate effect size on lopinavir C2-6: 6.8%
  Univariate effect size on lopinavir Cmin: 1.1%
[1]; [5]
  Univariate effect size on lopinavir C2-6: −14.9%
  Univariate effect size on lopinavir Cmin: −15.5%
[1]; [6]
  Univariate effect size on lopinavir C2-6: 4.2%
  Univariate effect size on lopinavir Cmin: −5.5%
[1]; [7]
  Univariate effect size on lopinavir C2-6: 5.8%
  Univariate effect size on lopinavir Cmin: 4.7%
[1]; [8]
  Univariate effect size on lopinavir C2-6: 5.4%
  Univariate effect size on lopinavir Cmin: −1.0%
[1]; [9]
  Univariate effect size on lopinavir C2-6: −7.1%
  Univariate effect size on lopinavir Cmin: −7.3%
[1]; [10]
  Univariate effect size on lopinavir C2-6: 12.8%
  Univariate effect size on lopinavir Cmin: 12.2%
[1]; independent variable SLCO1B1 Intron 2 (rs4149032)
  Multivariate effect size on lopinavir Cmin: 0.016 (−11) - %
[1]; independent variable SLCO1B1 Intron 2 (rs4149032), C2-6 = 2-6h post dose
  Univariate effect size on lopinavir C2-6: −4.6%
[1]; independent variable SLCO1B1 Intron 2 (rs4149032), Cmin = 10-14h post dose
  Univariate effect size on lopinavir Cmin: −11.9%
[1]; [11]
  Univariate effect size on lopinavir C2-6: −0.2%
  Univariate effect size on lopinavir Cmin: −1.8%
[1]; [12]
  Multivariate effect size on lopinavir Cmin: −17.2%
  Univariate effect size on lopinavir C2-6: −13.7%
  Univariate effect size on lopinavir Cmin: −17.4%
[1]; multivariate model
  C2-6 higher for each variant allele of SLCO1B1 521T>C: 11.1%
  C2-6 higher in patients receiving an additional protease inhibitor: 14.4%
  Cmin higher in patients receiving an additional protease inhibitor: 15.4%
  Cmin lower for each variant allele of SLCO1B1 rs4149032: 11%
  Cmin lower for every 10 Kg increase in body weight: 17.2%
[1]; [13]
  median lopinavir concentration (plasma): 5072 ng/mL
  range of lopinavir concentration (plasma): 114 to 24432 ng/mL
OATP1B1 [2]; with 2% human serum albumin
  Drug uptake, OATP1B1: 1.14 ± 0.41 pmol/oocyte
  Drug uptake, Water: 0.66 ± 0.22 pmol/oocyte
OATP1B1 [2]; without human serum albumin
  Drug uptake, OATP1B1: 4.31 ± 0.72 pmol/oocyte
  Drug uptake, Water: 2.14 ± 0.43 pmol/oocyte

## CC(C)(C)NC(=O)[C@@H]1C[C@@H]2CCCC[C@@H]2CN1C[C@@H](O)[C@H](Cc1ccccc1)NC(=O)[C@H](CC(N)=O)NC(=O)c1ccc2ccccc2n1 [Saquinavir, saquinavir]
OATP1B1 [3]
  Inhibition of bilirubin uptake through OATP1B1: inhibit bilirubin uptake
OATP1A2; with 2% human serum albumin
  Drug uptake, OATP1A2: 0.45 ± 0.05 pmol/oocyte
  Drug uptake, Water: 0.27 ± 0.03 pmol/oocyte
OATP1A2; without human serum albumin
  Drug uptake, OATP1A2: 2.16 ± 0.71 pmol/oocyte
  Drug uptake, Water: 1.01 ± 0.21 pmol/oocyte
OATP1B3
  Drug uptake, OATP1B3: 2.17 ± 0.61 pmol/oocyte
  Drug uptake, Water: 1.62 ± 0.45 pmol/oocyte
OATP1B1 [2]; with 2% human serum albumin
  Drug uptake, OATP1B1: 0.64 ± 0.23 pmol/oocyte
  Drug uptake, Water: 0.21 ± 0.06 pmol/oocyte
OATP1B1 [2]; without human serum albumin
  Drug uptake, OATP1B1: 1.78 ± 0.44 pmol/oocyte
  Drug uptake, Water: 0.94 ± 0.26 pmol/oocyte
